Measured values from patent US20250250608A1, “METHODS AND COMPOSITIONS FOR ASSAYING BETA-HEXOSAMINIDASE ENZYMATIC ACTIVITY VIA MASS SPECTROMETRY” (GelbChem, LLC, priority 2024, published 2025).

Key:
[1] = tested on: HexA/B; test: Enzyme kinetics of HexA/B with the HexA/B substrate, endogenous enzymes from healthy adult dried blood spots, LC-MS/MS detection; format: biochemical; settings: read-out: Michaelis-Menten constant (Km)
Description: 3.2 mm punches were taken from dried blood samples. The punches were added into a well of a multiwell plate and in particular, a 1.0 mL deep-well 96-well plate. Following, 30 μL of the duplex assay cocktail described above was added to each well. The plate was sealed with a silicone sealing mat and shaken at 250 rpm for 4 hours at 37° C. in an orbital shaker incubator. After incubation, the enzymatic reaction was quenched by adding 100 μL of methanol: ethyl acetate (1:1) and mixed by pipetting up and down ˜10 times. Analytes were extracted by adding sodium chloride solution (0.5 M, 200 μL) and ethyl acetate (400 μL) to each well and mixed by pipetting up and down ˜10 times. […]
(§1) Analytes were detected via a WATERS™ Xevo TQ triple-quadrupole mass spectrometer. […] The following MRM traces were monitored for quantitation: HexA enzymatic reaction product (456.5>356.1), HexA/B enzymatic reaction product (461.5>361.2), and internal standard (465.5>357.1). […]
Enzyme kinetics of HexA and HexA/B were measured in relationship to the HexA substrate and HexA/B substrate, respectively, using endogenous enzymes from healthy adult dried blood spots. […]
The reaction rate for each substrate at different substrate concentrations was measured and the relationship found to be hyperbolic.

[2] = Substrate stability over incubation in sodium formate buffer; format: physicochemical; settings: 24 hour incubation at 37° C. in sodium formate buffer; read-out: recovery of the substrates (stability)
[3] = target: T1, HexA (Homo sapiens, UniProt P06865); test: Competitive inhibition: HexA activity with the HexA substrate in presence and absence of the HexA/B substrate, dried blood spots from healthy individuals; format: biochemical; settings: HexA substrate in presence vs absence of HexA/B substrate
T1 construct: using endogenous enzymes from healthy adult dried blood spots; from tissue; host or cells: dried blood spots from healthy adults/individuals (3.2 mm punches)
T1 sequence (P06865 89-529): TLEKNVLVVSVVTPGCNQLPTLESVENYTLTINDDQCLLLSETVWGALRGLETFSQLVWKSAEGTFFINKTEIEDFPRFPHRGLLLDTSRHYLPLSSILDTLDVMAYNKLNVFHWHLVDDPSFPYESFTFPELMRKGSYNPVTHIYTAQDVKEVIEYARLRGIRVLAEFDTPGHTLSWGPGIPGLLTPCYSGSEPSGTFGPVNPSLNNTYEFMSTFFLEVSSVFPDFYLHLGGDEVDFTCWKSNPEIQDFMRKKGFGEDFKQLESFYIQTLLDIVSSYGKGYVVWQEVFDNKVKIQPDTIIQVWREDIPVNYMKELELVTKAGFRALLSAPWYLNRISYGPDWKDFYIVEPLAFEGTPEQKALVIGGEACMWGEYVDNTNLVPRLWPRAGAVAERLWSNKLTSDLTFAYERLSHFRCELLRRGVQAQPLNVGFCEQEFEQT
T1 sequence (P07686 122-556 partner): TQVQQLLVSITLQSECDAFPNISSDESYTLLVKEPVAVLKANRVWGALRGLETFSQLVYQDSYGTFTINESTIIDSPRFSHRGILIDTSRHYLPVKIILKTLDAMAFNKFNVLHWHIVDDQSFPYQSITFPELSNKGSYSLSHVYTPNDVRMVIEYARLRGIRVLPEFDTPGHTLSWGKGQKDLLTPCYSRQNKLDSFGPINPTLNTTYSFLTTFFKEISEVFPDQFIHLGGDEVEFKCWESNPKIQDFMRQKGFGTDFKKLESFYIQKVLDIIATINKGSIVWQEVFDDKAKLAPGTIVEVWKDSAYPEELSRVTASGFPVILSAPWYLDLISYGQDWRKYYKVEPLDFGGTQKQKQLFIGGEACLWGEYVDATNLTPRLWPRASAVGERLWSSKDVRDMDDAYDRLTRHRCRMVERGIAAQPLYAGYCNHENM
Description: The HexA/B substrate binds to both HexA and HexB, whereas the HexA substrate binds to only the HexA; thus, the HexA/B substrate may theoretically block the action of HexA on the HexA substrate by competitive binding (i.e. competitive inhibition). An experiment was done to test this theory where HexA enzymatic activity was measured in dried blood spots from healthy individuals using the HexA substrate in the presence and absence of the HexA/B substrate.

[4] = target: T1, HexA; test: Analytical range of duplex assay, HexA activity; format: biochemical; settings: dried blood spots
Description: 3.2 mm punches were taken from dried blood samples. The punches were added into a well of a multiwell plate and in particular, a 1.0 mL deep-well 96-well plate. Following, 30 μL of the duplex assay cocktail described above was added to each well. The plate was sealed with a silicone sealing mat and shaken at 250 rpm for 4 hours at 37° C. in an orbital shaker incubator. After incubation, the enzymatic reaction was quenched by adding 100 μL of methanol: ethyl acetate (1:1) and mixed by pipetting up and down ˜10 times. Analytes were extracted by adding sodium chloride solution (0.5 M, 200 μL) and ethyl acetate (400 μL) to each well and mixed by pipetting up and down ˜10 times. The plate was centrifuged at 3000×g for 5 min at ambient temperature, then 200 μL of the upper ethyl acetate layer was transferred to a 96-well microplate. […]
as §1
The analytical range, as calculated by dividing the enzymatic activity in healthy individual samples over the enzymatic activity in a blank, was determined to be 82 for the HexA substrate and 3,400 for the HexA/B substrate.

| Compound | Km [1] | recovery at 24 h [2] | competitive inhibition of HexA enzymatic activity on the HexA substrate [3] | analytical range (enzymatic activity in healthy individual samples over enzymatic activity in a blank) [4] |
| --- | --- | --- | --- | --- |
| [2H]c1c([2H])c([2H])c(C(=O)NCCCCN(CCC(=O)Nc2ccc(OC3OC(CO)C(O)C(O)C3NC(C)=O)cc2)C(=O)OC(C)(C)C)c([2H])c1[2H] (centres unmarked) [HexA/B substrate] | 3.06 mM | > 100% | no competitive inhibition | – |
| CC(=O)NC1C(Oc2ccc(NC(=O)CCN(CCCCNC(=O)c3ccccc3)C(=O)OC(C)(C)C)cc2)OC(COS(=O)(=O)O)C(O)C1O (centres unmarked) [HexA substrate] | – | > 100% | – | 82 |
